How the values were obtained:
[1] = system: cancer stem cells (CD44) in HuH-7 cells; test: Inhibitory effect on cancer stem cells (FCM analysis of CD44), Example 2.4; assay type: cell-based, human; details: comparison with IC-2
Description: CD44, a cancer stem cell marker, was used as an indicator to examine an inhibitory effect of each compound on cancer stem cells. The concentrations of the respective compounds were as described in FIG. 32. Each control sample used was 0.1% DMSO, a solvent for each compound. In the figures, the “‡” indicates a significant difference of p<0.01.
First, 70 to 90% confluent HuH-7 cells were harvested and seeded at 1.5×10^6 cells per 10-cm cell culture dish. After 24 h, each compound was added to the cells and the mixture was cultured at 37° C. At 48 h after the compound treatment, the cells were harvested from each culture dish. The cells were centrifuged at 1000 rpm and at 4° C. for 3 min to remove a supernatant and were then washed twice with 1 mL of 0.5% FBS/2 mM EDTA/PBS. Next, the cells were suspended in 500 μL of 5% BSA/0.5% FBS/2 mM EDTA/PBS for blocking at 4° C. for 15 min. Then, 5 μL of a mouse anti-human CD44 monoclonal antibody (156-3C11, Cell Signaling Technology Inc., Danvers, Mass.) was added to 500 μL of the cell suspension. The mixture was resuspended and subjected to a primary antibody reaction in a dark room at 4° C. for 30 min. After that, the cells were washed 3 times with 1 mL of 0.5% FBS/2 mM EDTA/PBS. Subsequently, 100 μL of Alexa Fluor 488-labeled IgG (H+L) (ab150113, Abcam Ltd., Cambridge, UK), which had been diluted 200-fold with 5% BSA/0.5% FBS/2 mM EDTA/PBS, was added and the cells were suspended. Then, a secondary antibody reaction was carried out in a dark room at 4° C. for 30 min. After that, the cells were washed 3 times with 1 mL of 0.5% FBS/2 mM EDTA/PBS. Thereafter, the cells were suspended in 500 μL of 0.5% FBS/2 mM EDTA/PBS and were made to pass through a 40 μm-mesh column (Becton, Dickinson and Company, Franklin Lakes, N.J.). A Beckman Coulter-Moflo XDP (Beckman Coulter Inc., Fullerton, Calif.) was used for analysis. Following the analysis, further analysis was conducted by adding 2 μL of 0.25 mg/mL Propidium Iodide (PI). The same experiment was repeated four times.

[2] = system: Wnt/β-catenin signaling; test: Inhibitory effect on Wnt/β-catenin signaling in mesenchymal stem cells (E7-TCF4 luciferase); assay type: cell-based, human; details: concentration equal to or lower than that of IC-2
Description: A pTCF4-CMVpro-GL4.20 plasmid vector, having 3 copies of TCF4 motifs (CCT TTG ATC) upstream of aCMV promoter in a multiple cloning site of pGL4.20 (Promega Corp., Fitchburg, Wis.), was linearized and stably transfected into UE7T-13 cells to prepare E7-TCF4 cells. Also, a pCMVpro-GL4.20 plasmid vector, having a CMV promoter in a multiple cloning site of pGL4.20, was linearized and stably transfected into UE7T-13 cells. The resulting stable cells (E7-CMV cells) were cultured, like UE7T-13 cells, in 10% FBS/DMEM containing 0.25 μg/mL puromycin.
UE7T-13 cells were used to measure Wnt/β-catenin signaling activity. The concentrations of the respective compounds were as described in FIG. 42. Each control sample used was 0.1% DMSO, a solvent for each compound.
First, 70 to 90% confluent E7-TCF4 cells and E7-CMV cells were harvested and seeded (n=3) at 1.6758×10^4 cells/well of a 24-well plate (9.0×10^3 cells/cm^2). One day after that, each compound was added to the cells and the mixture was cultured at 37° C. Day 4 after the compound addition, the culture medium was changed.
At day 1, 4, or 8 after the compound treatment, the culture medium was discarded, and 100 μL of room temperature 5×Passive Lysis Buffer (PLB), which had been diluted 5-fold with MilliQ water, was added to each well. Next, the plate was shaken at room temperature for 15 min and was then frozen at −30° C. overnight. A Luciferase Assay Substrate was diluted with 10 mL of room temperature Luciferase Assay Buffer II to prepare Luciferase Assay Reagent II (LARII). The frozen PLB lysate samples were thawed and permeabilized for 15 min. Then, 10 μL aliquots were added to wells of a 96-well white plate. While 50 μL aliquots of LARII were each added to each well, luminescence was quantified by using a 1420 multi-label counter ARVO MX to determine firefly luciferase activity.

[3] = system: CD44-positive HuH-7 cells; test: Liver cancer model mouse, tumor volume; assay type: in vivo, mice; details: 50 mg/kg IC-2 vs 30 mg/kg 5-FU, intraperitoneally every three days
Description: CD44-positive HuH-7 cells were subcutaneously transplanted in mice. Next, the engrafted mice were divided into 3 groups (DMSO group: 5 mice; 5-FU group: 4 mice; and IC-2 group: 4 mice). Then, DMSO was added to prepare 30 mg/kg of 5-FU and 50 mg/kg of IC-2 such that each liquid volume was 100 μL; and 100% DMSO, a solvent for each drug, was used as a control sample. Subsequently, each drug was dosed intraperitoneally every three days. The body weight of each mouse and the long and short diameters of a tumor were measured every three days. The tumor volume was calculated by using the following equation: Tumor volume=Long diameter×(Short diameter)^2×0.5. The volume at Day 0 was used to normalize each tumor volume, and then a graph was created. To fully evaluate a 5-FU effect, the 5-FU dose was set to an amount 2 times the regular amount 15 mg/kg used in research articles. The concentration of IC-2 corresponding to a concentration at which Wnt/β-catenin signaling was inhibited in vitro was calculated. Then, the concentration was doubled to set an IC-2 dose.

[4] = system: unsorted HuH-7 cells; test: Mice subcutaneously transplanted with unsorted HuH-7 cells; assay type: in vivo; details: mice transplanted with unsorted HuH-7 cells instead of CD44-positive HuH-7 cells
From the text: The effect of treating malignant tumors may be evaluated by imaging, endoscopic examination, biopsy, or detection of a malignant tumor marker. In addition, the effect of treating cancer stem cells may be evaluated by imaging, endoscopic examination, biopsy, or detection of a cancer stem cell marker. In addition, the effect of treating fibrosis may be evaluated by imaging, endoscopic examination, biopsy, or detection of a fibrosis marker. […] At this time, the level of a marker after administration of a therapeutic drug may be 0.7, 0.5, 0.3, or 0.1 times the level before the administration (or of a control). […] At this time, the number of marker-positive cells after administration of the therapeutic drug may be 0.7, 0.5, 0.3, or 0.1 times the number before the administration (or of a control). Note that in Example 6 below, the therapeutic effect was evaluated using mice in which CD44-positive HuH-7 cells had been subcutaneously transplanted. The present inventors also replaced the above CD44-positive HuH-7 cells by unsorted HuH-7 cells.

Row | Structure (SMILES) | inhibitory effect on cancer stem cells compared with IC-2 [1] | inhibitory effect on Wnt/β-catenin signaling pathway in mesenchymal stem cells compared with IC-2 [2] | anti-malignant tumor therapeutic effect (tumor volume) [3] | effect of treating a malignant tumor [4]
1 | COc1ccc(COc2ccc(CNC(=O)N3CCC(=O)N4C(Cc5ccccc5)C(=O)N(Cc5cccc6ccccc56)CC34)cc2)cc1 (stereo not shown) [IC-2-OPMB] | more potent inhibitory effect on cancer stem cells than IC-2 | more potent inhibitory effect | – | –
2 | O=C1C(Cc2ccccc2)N2C(=O)CCN(C(=O)NCc3ccccc3)C2CN1Cc1cccc2ccccc12 (stereo not shown) [IC-2] | – | – | more remarkable anti-malignant tumor therapeutic effect than 5-FU | exhibits an effect of treating a malignant tumor

Reference: patent publication US10597398B2, “Suppression and regeneration promoting effect of low molecular weight compound on cancer and fibrosis” (NATIONAL UNIVERSITY CORPORATION TOTTORI UNIVERSITY, priority 2015, dated 2020)
